In this experiment the target is T1, Kv4.2 (Rattus norvegicus, UniProt Q63881).
T1 construct: expressed in transfected cells; host or cells: HEK293t
T1 sequence (Q63881 1-630): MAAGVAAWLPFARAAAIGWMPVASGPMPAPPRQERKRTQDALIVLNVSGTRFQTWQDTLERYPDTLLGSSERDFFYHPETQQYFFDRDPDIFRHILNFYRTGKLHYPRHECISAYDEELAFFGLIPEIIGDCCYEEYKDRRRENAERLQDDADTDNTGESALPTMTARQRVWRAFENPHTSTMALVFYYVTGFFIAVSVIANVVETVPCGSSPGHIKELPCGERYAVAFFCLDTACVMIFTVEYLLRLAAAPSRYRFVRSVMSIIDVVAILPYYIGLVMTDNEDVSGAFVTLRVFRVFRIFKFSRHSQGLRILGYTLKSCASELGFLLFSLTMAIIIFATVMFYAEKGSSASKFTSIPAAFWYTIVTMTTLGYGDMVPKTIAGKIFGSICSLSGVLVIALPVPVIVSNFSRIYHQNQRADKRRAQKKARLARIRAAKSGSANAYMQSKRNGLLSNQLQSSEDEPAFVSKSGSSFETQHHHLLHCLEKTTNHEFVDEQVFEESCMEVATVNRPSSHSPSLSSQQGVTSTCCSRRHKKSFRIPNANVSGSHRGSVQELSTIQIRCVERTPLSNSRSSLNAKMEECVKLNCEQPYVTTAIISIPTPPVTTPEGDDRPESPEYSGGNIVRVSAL
As to the kind of experiment: current-voltage relationship / activation, Kv4.2. Type of experiment: cell-based. An excerpt:
Rat cDNA genes encoding Kv4.2 (Accession: NM_031730.2) and Kv4.3 (Accession: AB003587.1) were subcloned to vector pcDNA3.1. In addition, human cDNA genes encoding Nav1.7 (Accession: DQ857292.1) and Nav1.5 (Accession: AB158469.2) were subcloned to vectors pcDNA3.1-mod and pcDNA3.1, separately. Then, Kv4.2, Kv4.3, Nav1.5 and Nav1.7 constructs were transiently transfected into the human embryonic kidney 293t (HEK293t) cells using lipofectamine 2000 (Invitrogen, USA) in accordance with manufacturer protocols. Thereafter, HEK293 cells were inoculated within Dulbecco’s modified Eagle’s medium (DMEM) containing 10% fetal bovine serum (FBS) at 5% CO2 and 37°C. The Kv4.3 channel and the Kv4.2 counterpart were then transfected in the absence of β subunit. Subsequently, cells were incubated with a DNA-lipofectamine mixture (one reporter plasmid for green fluorescence protein and channel constructs) for 4-6 h, and were washed with the fresh medium.
An EPC-10 patch-clamp amplifier (HEKA, Germany) was employed to record the potassium currents at the configuration of whole-cell patch-clamp under an ambient temperature of 22-25°C. The resistance was 2.0-3.0 MΩ when the recording pipette contained a full volume of internal solution (supplemented with 140 mM KCl, 10 mM HEPES, 2.5 mM MgCl2, 5 mM ATP and 11 mM EGTA). KOH was utilized to adjust the pH to 7.2, while sucrose was employed to adjust the osmolarity to 310 mOsm/L. The culture medium was replaced with an external solution containing 150 mM NaCl, 2.5 mM CaCl2, 10 mM HEPES, 2 mM MgCl2, 5 mM KCl, and 10 mM D-glucose. Similarly, sucrose and NaOH were applied to adjust the osmolarity to 330 mOsm/L and pH to 7.4. […] The series resistance was maintained at about 5 MΩ, with 65-70% compensation. Finally, the leakage currents and linear capacitance were subtracted digitally according to the P/4 protocol.
The voltage-dependent inhibition of Kv4.2 and Kv4.3 channels by JZTX-X was determined by the depolarizing pulses to potentials in 10 mV steps from −80 to +60 mV at an interval of 10 s and the holding potential of -80 mV. […] For quantifying the voltage-depending inhibition of Kv4.2 and Kv4.3 channels, the relative current was drawn based on the membrane potential. Under control conditions, those threshold potentials to initially activate Kv4.2 and Kv4.3 currents were around -40 mV. The JZTX-X treatment at 500 nM inhibited the Kv4.2 and Kv4.3 currents, and then the I-V relation shifted to the right by about 30 mV (from -39.5 ± 1.9 mV to -11.3 ± 1.2 mV ) and 40 mV (from -39.8 ± 1.5 mV to -2.5 ± 0.9 mV ), separately (Fig. 5C and D). Additionally, the channel conductance also shifted rightward by around 30 mV (data not shown).
Figure 5. Effects of JZTX-X on I-V relationships in Kv4.2 and Kv4.3 channels: Each cell was held at the voltage of -80 mV, and the […] current families were induced at the depolarization steps of 300 ms to different potentials (range, -80 mV to +60 mV at 10 mV increments). […] ( C ) and ( D ) represented I-V relation for Kv4.2 (C) and Kv4.3 (D) currents before (filled circles) and after 100 nM (open circles) or 500 nM (filled inverted triangles) JZTX-X treatment, respectively. ( E ) and ( F ) represented the fractional suppression on Kv4.2 (E) and Kv4.3 (F) currents after 100 nM (filled circles) and 500 nM (open circles) JZTX-X treatment, respectively. All data were expressed as mean ± S.E.M (n = 5-7 cells).

These results are taken from paper PMC7269146, “Jingzhaotoxin-X, a gating modifier of Kv4.2 and Kv4.3 potassium channels purified from the venom of the Chinese tarantula Chilobrachys jingzhao” (The Journal of Venomous Animals and Toxins Including …, 2020).

Where a SMILES comes first, the peptide text is derived from it. Bridges are numbered along the chain shown (N, C = ends).

Regarding `CC(C)C[C@@H]1NC(=O)[C@H](CCCCN)NC(=O)[C@H](Cc2ccc(O)cc2)NC(=O)[C@@H]2CSSC[C@@H]3NC(=O)[C@H](Cc4ccc(O)cc4)NC(=O)[C@H](Cc4ccccc4)NC(=O)CNC(=O)[C@H](C)NC(=O)[C@H](CSSC[C@H](NC(=O)[C@@H](N)CC(C)C)C(=O)N[C@@H](CO)C(=O)N[C@@H](CCCNC(=N)N)C(=O)N[C@@H](CCC(=O)O)C(=O)NCC(=O)N[C@@H](CCC(=O)O)C(=O)N[C@@H](Cc4ccccc4)C(=O)N2)NC(=O)[C@H](CSSC[C@@H](C(=O)N[C@@H](Cc2ccc(O)cc2)C(=O)N[C@@H](CCCNC(=N)N)C(=O)N[C@@H](CC(N)=O)C(=O)O)NC(=O)[C@H](Cc2c[nH]cn2)NC(=O)[C@H](CC(C)C)NC(=O)[C@H](C(C)C)NC(=O)[C@H](Cc2ccccc2)NC(=O)[C@H](C)NC(=O)[C@H](CCCCN)NC3=O)NC(=O)[C@H](CCCCN)NC(=O)[C@H](CCCNC(=N)N)NC1=O` [JZTX-X, Jingzhaotoxin-X] (H-LCSREGEFCYKLRKCCAGFYCKAFVLHCYRN-OH; disulfide 2-16, 9-21, 15-28; N-terminus assumed), the “reduction of Kv4.2 currents over voltage range” value (100 nM, -80 to +60 mV in 10 mV steps) is recorded as “reduced the currents of Kv4.2 channels throughout the whole voltage range”. For the setting “500 nM, control -39.5 ± 1.9 mV, holding -80 mV, n = 5-7 cells”, the “I-V relation potential after toxin, Kv4.2” value is on record as -11.3 ± 1.2 mV. Also, the “rightward shift of I-V relation, Kv4.2” value (500 nM, holding -80 mV) is “about 30 mV”. For the same compound, for the setting “data not shown, channel not named separately”, the “rightward shift of channel conductance, Kv4.2” value was “about 30 mV”. Further, the “voltage dependence of Kv4.2 inhibition” value (test potentials -10 to +60 mV, 100 nM and 500 nM) is recorded as “dependent on voltage”.
